Legend:
Format in all cases: cell-based, human
[1] = test system: AP2α, AP1/2β, clathrin heavy chain (CHC), dynamin; test: Immunoblot for cleavage of clathrin-dependent endocytosis machinery and caspases in cell lysates
Method: (b) Colo205 cells were treated as in (a) and analyzed by immunoblot for processing of specific components of various types of clathrin-associated endocytic trafficking.
Open arrows indicate cleavage products and solid arrows indicate full-length proteins.
(c) BJAB cells were treated with crosslinked Apo2L/TRAIL and processing of dynamin was determined by immunoblot.
The cells were analyzed by immunoblot for processing of caspase-8, caspase-9, caspase-3, and AP2α.
Human colorectal adenocarcinoma Colo205 cells human B cell lymphoma BJAB cells and human T cell carcinoma Jurkat wild type cells (A3 clone), FADD-deficient (E1) and caspase-8-deficient (I9.3) were cultured in RPMI 1640+10% fetal bovine serum (FBS)+2 mM glutamine+1000 U/ml Penicillin-Streptomycin (Life Technologies). Human cervical carcinoma HeLa-M cells human breast adenocarcinoma MCF7 and human colorectal adenocarcinomas HCT15, HCT8, SW948, Colo320, human fibrosarcoma HT180 (ATCC), HCT116 Bax(−/−), HCT116 Bax(+/−) were grown in 50:50 Dulbecco's modified Eagle's and FK12 medium+10% FBS+1000 U/ml Penicillin-Streptomycin. cDNA clones encoding temperature-sensitive dynamins were the G273D mutant and dominant negative K44A mutant dynamin-1 (Dyn^G273D and Dyn^K44A, respectively). Dyn^G273D was expressed from pHUSH-ProEx, a single retroviral plasmid tetracycline-inducible expression system constructed at Genentech. The cDNA was first cloned into a shuttle plasmid containing a CMV enhancer-promoter sequence with two copies of the tetracycline operator TetO2, then transferred via in vitro phage lamda-based recombination, or Gateway® technology (Invitrogen, Carlsbad), to a Moloney murine leukemia virus backbone vector in which the wild type Tet repressor is driven by a separate β-actin promoter and followed by an internal ribosomal entry sequence and puromycin selection cassette. Dyn^K44A was expressed from the 2-vector tetracycline-inducible retroviral expression system, pRevTet-On/pRev-Tre (Clontech), using serial infections. Retroviral vectors were transfected into Phoenix amphotropic Moloney Murine Leukemia Virus packaging cells using Lipofectamine 2000 […]. Retroviral particles were harvested and used in HeLa-M and BJAB cell infections as described previously (Simpson et al. J Cell Biol 137, 835-45, 1997). Dyn^G273 infected cells were puromycin selected (2-3 μg/ml) for 1-2 weeks and cloned either by manually picking individual HeLa-M colonies or by FACS sorting of resistant BJAB cells (gated for exclusion of propidium iodide) and single cell seeding in 96-well cell culture plates using an EPICS ELITE-ESP equipped with an Autoclone device (Coulter, Hialeah, Fla.). Cell clones were screened for uniformity of doxycycline inducible dynamin-1 expression by immunofluorescence microscopy. Dyn^K44A-infected cells were hygromycin B (400 μg/ml) and G418 (1 mg/ml) selected for 1-2 weeks. Induction with doxycycline (1 μg/ml) was performed at 32° C. for 72 hr as described previously (Damke et al. J Cell Biol 131, 69-80 1995). Vincristine sulfate (#T-117), Adriamycin.HCL (GR-319) were purchased from Biomol, tetracycline-free FBS from Hyclone, Puromycin from Clontech and Doxycyclin from Sigma. zVAD-fmk (asN-benzyloxycarbonyl-Val-Ala-Asp-fluoromethylketone) was obtained from MD Biosciences (#FK-009). […]

[2] = test system: DISC; test: DISC immunoprecipitation
Method: (a) BJAB cells were equilibrated with ^647Tf on ice, incubated for the indicated uptake interval at 37° C. or on ice, then fluorescence quantified by flow cytometry. […] DISC-associated FADD and caspase-8 were visualized by immunoblot. (c, d) Dyn^G273D-transduced BJAB cells were treated with buffer (No Dox) or doxycyline (Dox) and shifted to 38° C. for 20 min to inactivate dynamin. The cells were treated with crosslinked Apo2L/TRAIL for the indicated amounts of time and the DISC was immunoprecipitated. DISC-associated FADD and caspase-8 were visualized by immunoblot (c) or DISC-associated caspase-8 activity was measured as described previously (Sharp et al. J Biol Chem 280, 19401-409, 2005).
BJAB cells (1×10^7 per time point) were treated with Flag-Apo2L/TRAIL cross-linked by anti-FLAG M2 Abs, collected, lysed, immunoprecipitated and the DISC was analyzed as described (see, e.g., Kischkel, F. C. et al., Immunity 12, 611-20 (2000)).

[3] = test system: DR5; test: Temperature-shift DR5 uptake in DynG273D-transduced BJAB cells; details: doxycyclin-stimulated dynG273D expression, 20 min
Method: (a-d) Dyn^G273D-transduced HeLa-M cells were puromycin-selected, doxycycline-induced, pre-incubated for 20 min at the indicated temperature, then incubated another 20 min in the presence of Alexa-488 conjugated Tf (^488Tf). Cells were then processed for immunofluorescence microscopy using a dynamin-1 specific antibody. (e, f) Nontransduced (parental) or clonal Dyn1^G273D-transduced BJAB cells with (+dox) or without (no dox) doxycycline induction were assayed for ^488Tf or ^6475C7 uptake over a 20 min period at 30° C. (white bars) or 38° C. (black bars) by flow cytometry and means plotted (±SD).
Cells were acid stripped or not and quantified by flow cytometry.

[4] = test system: DynG273D-transduced BJAB cells; test: Apoptosis assay (sub-diploid DNA, DNA fragmentation); details: induction of dynG273D and temperature-shift to 38° C.
Method: Cells were stained with propidium iodide after ethanol fixation and RNase treatment and the amount of sub-diploid DNA was analyzed by flow cytometry as previously described, using Expo32 software with an Epics XL.MCL cytometer (Coulter Beckman), (see, e.g., Nicholson, D. W., Cell Death Differ 6, 1028-42 (1999)).

[5] = test system: caspase-3/7; test: Caspase-3/7 activity assay (Apo-One); details: after induction of dynG273D, 38° C. compared to 30° C.
Method: The caspase-3/7 assay was performed using Apo-One Homogenous Caspase-3/7 Assay (Promega). […] Lysates were incubated at room temperature for 1 hour before reading in a fluorometer at 485/530 […].

[6] = test system: BJAB and Colo205 cells; test: Transferrin (Tf) endocytosis rate by flow cytometry
Method: The cells were then equilibrated on ice for 30 min with Alexa-647-conjugated Tf (^647TF) and uptake at 37° C. was measured by flow cytometry. Each endocytosis rate was derived from the slope of the initial linear phase of a 4 min uptake kinetics plot (a, inset). […] Rates were normalized to the DMSO treated sample (±SEM).
Sedimented cells were resuspended in cold 2% paraformaldehyde/PBS and mean fluorescence intensity of 10,000 cells quantified with a Coulter Epics Elite-ESP flow cytometer (Hialeah, Fla.). Endocytic rates were determined from linear slopes of steady-state internal/surface plots (see, e.g., Wiley, H. S. et. al, J Biol Chem 257, 4222-9 (1982)). For temperature-shift experiments, ice binding incubations were avoided. Instead, cells were preconditioned for 20 min and maintained at 30° C. or 38° C. in binding medium, incubated an additional 0 (control) or 20 min with ^647Tf, chilled on ice for 30 min, and processed for flow cytometry to determine internal/surface ^647Tf ratios.

[7] = MCF7 cells, deficient in caspase-3

Apo2L/TRAIL: Human recombinant soluble Apo2L/TRAIL in non-tagged (trimeric) or Flag-tagged, antibody-crosslinked versions; SEQ ID NO: 7
Start of depletion of full-length dynamin after stimulation ([1]; BJAB cells, crosslinked Apo2L/TRAIL): ≤ 1 h | Cleavage of AP2α isoform C ([1]; BJAB, Colo205, LS1034 and SW948 cells): did not induce cleavage of isoform C | Caspase processing ([1]; Bax+/- HCT116 cells): stimulated processing of both caspase-8 and -3 | Caspase processing ([1]; Bax-/- HCT116 cells): only of caspase-8 | Proteolysis of structurally analogous adaptors (AP1α, AP3β and δ, AP4ε, β-COP, Sec23) ([1]; Colo205 cells, similar timeframe): did not induce proteolysis | CHC cleavage [1, 7]: did not stimulate CHC cleavage | Processing of caspase-8 and AP2α [1, 7]: relatively weak and slow processing of caspase-8 and AP2α | Processing of AP2α and CHC ([1]; caspase-8-deficient or FADD-deficient mutant Jurkat cell lines): neither ligand stimulated processing of these targets | Processing of caspase-8 and -3 and cleavage of AP2α, AP1/2β and CHC ([1]; several cancer cell lines, susceptible Colo205, BJAB, HeLa-M, not resistant HCT8): cleavage of AP2α, AP1/2β, and clathrin heavy-chain (CHC) | Time within which caspase processing and AP2α, AP1/2β, CHC cleavage occurred ([1]; susceptible cell lines Colo205, BJAB, HeLa-M): ≤ 2 h | Cleavage of AP2α and CHC ([1]; wt Jurkat T cells): induced cleavage of AP2α and CHC | DISC assembly with Tf endocytosis blocked ([2]; BJAB cells chilled on ice): still recruited FADD and caspase-8 to their respective receptors and processed caspase-8 | DISC formation, caspase-8 processing and activity despite endocytosis inhibition ([2]; dynG273D BJAB cells, 38° C.): comparable DISC formation, caspase-8 processing, and caspase-8 activity in the DISC | Ligand-induced DR5 uptake ([3]; 30° C.): ~25% | Ligand-induced DR5 uptake ([3]; 38° C.): ~10% | Apoptosis (cells with fragmented DNA) [4]: augmented apoptosis | Ligand-stimulated caspase-3/7 enzymatic activity [5]: substantial increase | Inhibition of the rate of Tf endocytosis ([6]; BJAB and Colo205 cells, pretreatment at 37° C.): 75-85% | Reduction of Tf endocytosis rate ([6]; Colo205 cells, extended exposure for 2 hr at 37° C.): 5 fold

— patent US8198033B2, “Methods and materials for observing apoptosis” (Genentech, Inc., priority 2006, dated 2012)
